Source: patent publication US4552882A, “7-(1-Pyrrolyl) derivatives of 1-ethyl-1,4-dihydro-4-oxoquinoline-3-carboxylic acids and 1-ethyl-1,4-dihydro-4-oxo-1,8-naphthyridine-3-carboxylic acids and their use as antimicrobial agents” (Provesan, SA, priority 1983, dated 1985)
≈ marks a conversion by molar mass, not a printed value.

What was measured:
[1] = system: Serratia marcescens ATCC 13880; assay: MIC in vitro; type: cell-based; details: ATCC13880, Dextrose agar, 37° C., 20 hours
Procedure: (§1) (G. L. Daquet and Y. A. Chabbect, Techniques en bacteriologie (Bacteriological techniques), vol. 3, Flammarion Medecine Sciences, Paris, 1972 and W. B. Hugo and A. D. Rusell, Pharmaceutical Microbiology, Blackwell Scientific Publications, London, (1977)). Antibiotic medium no. 1 (seed agar) (Oxoid CM 327) Tryptone-soya broth (Oxoid CM 129) Ringer's physiological solution 1/4 (oxoid BR 52) Dextrose agar (BBL-11165) 0.1 N NaOH "Serratia marcescens" ATCC 13880 Each of the microorganisms is seeded by streaking in tubes of Antibiotic medium No. 1 (seed agar), which are then incubated at 37° C. for 20 hours. Using a culture loop, the cultures are then seeded in tryptone-soyabroth and incubated at 37° C. for 20 hours. The culture obtained is diluted to 1/4 with Ringer's physiological solution, so as to obtain a standardized suspension of 10^7 -10^9 cfu/ml for each organism. Starting from a solution of 1,000 μg/ml in 0.1 N NaOH, each product is diluted in Dextrose agar (previously melted and maintained at 50° C.), with successive dilutions so as to obtain the following concentrations: 64--32--16--8--4--2--1--0.5--0.25--0.125 μg of derivative/ml medium. For each product, the solution of each concentration is subsequently distributed into Petri dishes 10 cm in diameter, with 10 ml of medium per dish and the same number of dishes as microorganisms to be tested. As soon as the medium has cooled, the dishes are seeded with the inoculations using 0.4 ml of inoculation per dish. They are spread with a Driglasky loop and the supernatant is removed. The seeded dishes are incubated at 37° C. for 20 hours.

Shigella flexnerii = assay: MIC in vitro; type: cell-based; details: Dextrose agar, 37° C., 20 hours
Procedure: (G. L. Daquet and Y. A. Chabbect, Techniques en bacteriologie (Bacteriological techniques), vol. 3, Flammarion Medecine Sciences, Paris, 1972 and W. B. Hugo and A. D. Rusell, Pharmaceutical Microbiology, Blackwell Scientific Publications, London, (1977)).
Antibiotic medium no. 1 (seed agar) (Oxoid CM 327)
Tryptone-soya broth (Oxoid CM 129)
Ringer's physiological solution 1/4 (oxoid BR 52) Dextrose agar (BBL-11165) 0.1 N NaOH
Each of the microorganisms is seeded by streaking in tubes of Antibiotic medium No. 1 (seed agar), which are then incubated at 37° C. for 20 hours. Using a culture loop, the cultures are then seeded in tryptone-soyabroth and incubated at 37° C. for 20 hours. The culture obtained is diluted to 1/4 with Ringer's physiological solution, so as to obtain a standardized suspension of 10^7 -10^9 cfu/ml for each organism.
Starting from a solution of 1,000 μg/ml in 0.1 N NaOH, each product is diluted in Dextrose agar (previously melted and maintained at 50° C.), with successive dilutions so as to obtain the following concentrations: 64--32--16--8--4--2--1--0.5--0.25--0.125 μg of derivative/ml medium.
For each product, the solution of each concentration is subsequently distributed into Petri dishes 10 cm in diameter, with 10 ml of medium per dish and the same number of dishes as microorganisms to be tested.
As soon as the medium has cooled, the dishes are seeded with the inoculations using 0.4 ml of inoculation per dish. They are spread with a Driglasky loop and the supernatant is removed. The seeded dishes are incubated at 37° C. for 20 hours.

[2] = system: Staphylococcus aureus ATCC 5488/23; assay: MIC in vitro; type: cell-based; details: ATCC5488, Dextrose agar, 37° C., 20 hours
Excerpt: as §1, with “"Staphylococcus aureus"” for “"Serratia marcescens"”, “5488/23” for “13880”

in vivo = details: mouse, ip
Procedure: To determine this toxicity, C.F.L.P. strain albino mice of both sexes, weighing between 19 and 25 grams, have been used as experimental animals. After an 18 hour fast period with water "ad libitum" the derivatives which are the subjects of the present invention are administered intraperitoneally in 5% suspension in gum arabic. The volume of suspension administered has in all cases been 0.4 ml/20 grams (20 ml/kg), changing the concentration of the suspension according to the dose administered.
One hour after the administration of the derivatives, the animals are supplied with Panlab standard rat-mouse feed. The period of observation of mortality has been 7 days.

SMILES | MIC [1] | MIC (Shigella flexnerii) | MIC [2] | LD50 at 168 h (in vivo)
CCn1cc(C(=O)O)c(=O)c2ccc(-n3cccc3)cc21 [Example 1, 7-(1-pyrrolyl)-1-ethyl-1,4-dihydro-4-oxo-3-quinolinecarboxylic acid] | 8 µg/mL (≈ 28.3 µM) | 8 µg/mL (≈ 28.3 µM) | 1 µg/mL (≈ 3.54 µM) | > 800 mg/kg
CCn1cc(C(=O)O)c(=O)c2cc(F)c(-n3cccc3)cc21 [Example 2, 6-fluoro-7-(1-pyrrolyl)-1-ethyl-1,4-dihydro-4-oxo-3-quinolinecarboxylic acid] | 2 µg/mL (≈ 6.66 µM) | 2 µg/mL (≈ 6.66 µM) | 0.25 µg/mL (≈ 0.833 µM) | > 1600 mg/kg
CCn1cc(C(=O)O)c(=O)c2ccc(-n3cccc3)nc21 [Example 3, 1-ethyl-1,4-dihydro-4-oxo-7-(1-pyrrolyl)-1,8-naphthyridine-3-carboxylic acid] | 16 µg/mL (≈ 56.5 µM) | 16 µg/mL (≈ 56.5 µM) | 8 µg/mL (≈ 28.2 µM) | 900 mg/kg
CCn1cc(C(=O)O)c(=O)c2cc(F)c(-n3cccc3)nc21 [Example 4, 1-ethyl-1,4-dihydro-4-oxo-6-fluoro-7-(1-pyrrolyl)-1,8-naphthyridine-3-carboxylic acid] | 2 µg/mL (≈ 6.64 µM) | 2 µg/mL (≈ 6.64 µM) | 0.5 µg/mL (≈ 1.66 µM) | > 1000 mg/kg
CCn1cc(C(=O)O)c(=O)c2cnc(N3CCNCC3)nc21 [Pipemidic acid, reference compound] | 16 µg/mL (≈ 52.7 µM) | 4 µg/mL (≈ 13.2 µM) | 64 µg/mL (≈ 211 µM) | –
